Data as given in patent publication US10588893B2, “Ointment containing an oxazole compound” (OTSUKA PHARMACEUTICAL CO., LTD., priority 2015, dated 2020).

Assays:
[1] = Miscibility of compound (11) solvent solution with petrolatum; type: physicochemical
From the text: (§1) To select a solvent for dissolving compound (11) in preparing an ointment containing compound (11), the solubility of compound (11) in various solvents was studied. […] Such a case may result in precipitation of compound (11). Thus, a solvent that has a high solubility of compound (11) but that has […] miscibility (compatibility) with petrolatum or paraffin is relatively preferable for use.

[2] = Solubility of compound (11) in various solvents; type: physicochemical
From the text: as §1

Miscibility of Compound (11) Solvent Solution with Petrolatum ([1]; solvent: Decyl oleate): Miscible
Miscibility of Compound (11) Solvent Solution with Petrolatum ([1]; solvent: Diethyl sebacate): Miscible
Miscibility of Compound (11) Solvent Solution with Petrolatum ([1]; solvent: Diisopropyl adipate): Miscible
Miscibility of Compound (11) Solvent Solution with Petrolatum ([1]; solvent: Hexyldodecanol): Miscible
Miscibility of Compound (11) Solvent Solution with Petrolatum ([1]; solvent: Isopropyl myristate): Miscible
Miscibility of Compound (11) Solvent Solution with Petrolatum ([1]; solvent: Isostearic acid): Miscible
Miscibility of Compound (11) Solvent Solution with Petrolatum ([1]; solvent: Isostearyl alcohol): Miscible
Miscibility of Compound (11) Solvent Solution with Petrolatum ([1]; solvent: Liquid Paraffin): Miscible
Miscibility of Compound (11) Solvent Solution with Petrolatum ([1]; solvent: Olive oil): Miscible
Miscibility of Compound (11) Solvent Solution with Petrolatum ([1]; solvent: Propylene carbonate): Immiscible
Miscibility of Compound (11) Solvent Solution with Petrolatum ([1]; solvent: Triacetine): Immiscible
solubility of compound (11), in words ([2]; in triacetin and propylene carbonate): relatively high
Solubility (W/W %) ([2]; solvent: Decyl oleate): 2.6 W/W %
Solubility (W/W %) ([2]; solvent: Diethyl sebacate): 42.6 W/W %
Solubility (W/W %) ([2]; solvent: Diisopropyl adipate): 40.3 W/W %
Solubility (W/W %) ([2]; solvent: Hexyldodecanol): 5.4 W/W %
Solubility (W/W %) ([2]; solvent: Isopropyl myristate): 6.0 W/W %
Solubility (W/W %) ([2]; solvent: Isostearic acid): 19.8 W/W %
Solubility (W/W %) ([2]; solvent: Isostearyl alcohol): 5.1 W/W %
Solubility (W/W %) ([2]; solvent: Liquid Paraffin): 0.1 W/W %
Solubility (W/W %) ([2]; solvent: Olive oil): 6.1 W/W %
Solubility (W/W %) ([2]; solvent: Propylene carbonate): 56.9 W/W %
Solubility (W/W %) ([2]; solvent: Triacetine): 32.5 W/W %
Compound: CCOc1ccccc1C(=O)NCc1coc(-c2ccc(OC(F)F)c(OC(C)C)c2)n1 [Compound (11)]
